We go through one compound from ChEMBL document CHEMBL4823254, “Tetrahydroquinoline-Capped Histone Deacetylase 6 Inhibitor SW-101 Ameliorates Pathological Phenotypes in a Charcot-Marie-Tooth Type 2A Mouse Model” (J Med Chem, 2021).

Series [1] can be described thus: Cmax in C57BL/6J mouse brain at 15 mg/kg, ip. The series is classed as ADME, organism-based. The arrangement: route intraperitoneal, dose 15 mg/kg.
For series [2], the target named is Histone deacetylase 3 (Homo sapiens, UniProt O15379). The series can be described thus: Inhibition of recombinant human HDAC3 using Ac-GAK(Ac)-AMC as substrate preincubated for 10 mins followed by substrate addition and measured after 30 mins by fluorescence-based assay.
Series [3] can be described thus: Tmax in C57BL/6J mouse brain at 15 mg/kg, ip. It counts as ADME, organism-based.
Series [4] deals with T1, Protein deacetylase HDAC6 (Homo sapiens, UniProt Q9UBN7).
T1 sequence (Q9UBN7 whole entry): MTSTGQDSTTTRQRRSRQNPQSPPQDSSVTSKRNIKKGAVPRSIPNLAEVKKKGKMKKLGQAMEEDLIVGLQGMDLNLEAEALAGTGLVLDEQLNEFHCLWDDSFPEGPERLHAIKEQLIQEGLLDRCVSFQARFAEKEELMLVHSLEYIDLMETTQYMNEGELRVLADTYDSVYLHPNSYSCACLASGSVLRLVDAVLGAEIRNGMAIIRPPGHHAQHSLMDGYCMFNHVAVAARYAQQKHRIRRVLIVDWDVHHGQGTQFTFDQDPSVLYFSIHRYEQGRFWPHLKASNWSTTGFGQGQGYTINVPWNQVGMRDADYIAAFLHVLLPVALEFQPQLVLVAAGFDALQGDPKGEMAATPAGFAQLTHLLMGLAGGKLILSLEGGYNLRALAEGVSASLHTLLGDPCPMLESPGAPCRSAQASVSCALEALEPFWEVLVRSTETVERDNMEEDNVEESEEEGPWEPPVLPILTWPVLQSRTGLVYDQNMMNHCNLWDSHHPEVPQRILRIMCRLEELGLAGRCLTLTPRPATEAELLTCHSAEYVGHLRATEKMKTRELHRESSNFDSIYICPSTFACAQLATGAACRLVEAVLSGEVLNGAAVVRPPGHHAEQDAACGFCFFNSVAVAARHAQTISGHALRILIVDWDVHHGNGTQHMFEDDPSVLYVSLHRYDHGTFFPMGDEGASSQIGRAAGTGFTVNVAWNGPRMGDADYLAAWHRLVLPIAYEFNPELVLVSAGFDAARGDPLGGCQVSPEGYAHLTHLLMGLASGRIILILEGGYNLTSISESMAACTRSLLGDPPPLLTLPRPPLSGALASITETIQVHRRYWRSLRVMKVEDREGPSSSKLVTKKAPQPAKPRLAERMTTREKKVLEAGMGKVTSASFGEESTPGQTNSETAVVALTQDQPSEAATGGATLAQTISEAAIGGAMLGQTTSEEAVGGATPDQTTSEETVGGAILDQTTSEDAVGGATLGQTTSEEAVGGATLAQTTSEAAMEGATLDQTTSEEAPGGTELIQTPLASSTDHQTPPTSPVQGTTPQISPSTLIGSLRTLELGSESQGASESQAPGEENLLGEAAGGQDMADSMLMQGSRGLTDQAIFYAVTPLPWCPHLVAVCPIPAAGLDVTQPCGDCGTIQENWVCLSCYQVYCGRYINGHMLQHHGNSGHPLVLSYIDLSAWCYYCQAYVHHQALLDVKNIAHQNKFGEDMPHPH
Description: Inhibition of recombinant human HDAC6 using Ac-GAK(Ac)-AMC as substrate preincubated for 10 mins followed by substrate addition and measured after 30 mins by fluorescence-based assay

Series [5] relates to Mus musculus. The series can be described thus: Neuroprotective activity in hMFN2-induced CMT2A transgenic mouse model assessed as assessed as latency to fall at 20 mg/kg, ip qd administered for 26 weeks when treated prior with compound dissolved in PBS/PEG400/Tween80/EtOH (50/35/10/5) wt% as vehicle by rotarod test. It counts as functional, organism-based. For orientation: Falling from the rotarod earlier than controls is read as motor impairment.

For series [6], the target named is T2, Protein deacetylase HDAC6 (Mus musculus) (UniProt Q9Z2V5).
T2 sequence (whole entry): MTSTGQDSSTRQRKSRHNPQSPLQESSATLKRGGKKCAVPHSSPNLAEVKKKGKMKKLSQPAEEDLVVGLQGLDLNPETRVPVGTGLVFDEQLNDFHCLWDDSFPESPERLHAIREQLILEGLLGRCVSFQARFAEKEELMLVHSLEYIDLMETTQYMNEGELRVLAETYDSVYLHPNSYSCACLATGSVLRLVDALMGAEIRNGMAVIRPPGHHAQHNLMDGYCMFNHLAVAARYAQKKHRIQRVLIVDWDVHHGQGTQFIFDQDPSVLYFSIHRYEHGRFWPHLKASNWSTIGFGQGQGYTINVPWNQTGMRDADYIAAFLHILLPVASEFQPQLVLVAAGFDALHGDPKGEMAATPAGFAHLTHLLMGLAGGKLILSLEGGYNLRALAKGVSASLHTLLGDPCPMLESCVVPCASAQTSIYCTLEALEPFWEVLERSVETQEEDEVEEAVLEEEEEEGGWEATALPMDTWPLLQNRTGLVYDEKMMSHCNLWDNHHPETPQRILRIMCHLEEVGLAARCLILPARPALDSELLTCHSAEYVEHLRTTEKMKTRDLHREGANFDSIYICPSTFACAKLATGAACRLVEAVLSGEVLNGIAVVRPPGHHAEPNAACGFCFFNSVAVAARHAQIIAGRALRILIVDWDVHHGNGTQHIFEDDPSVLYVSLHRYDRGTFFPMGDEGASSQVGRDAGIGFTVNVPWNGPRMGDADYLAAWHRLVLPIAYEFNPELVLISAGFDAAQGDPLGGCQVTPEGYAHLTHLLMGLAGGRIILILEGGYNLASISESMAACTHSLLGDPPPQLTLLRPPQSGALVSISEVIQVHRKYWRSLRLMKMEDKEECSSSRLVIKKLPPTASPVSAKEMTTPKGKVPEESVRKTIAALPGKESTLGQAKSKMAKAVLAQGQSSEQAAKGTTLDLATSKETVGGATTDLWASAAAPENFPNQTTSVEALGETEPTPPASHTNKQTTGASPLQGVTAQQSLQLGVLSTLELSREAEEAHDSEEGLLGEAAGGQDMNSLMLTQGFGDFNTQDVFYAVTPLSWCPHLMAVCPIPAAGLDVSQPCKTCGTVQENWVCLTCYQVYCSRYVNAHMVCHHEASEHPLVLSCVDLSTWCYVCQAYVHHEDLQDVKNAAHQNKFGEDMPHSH
Put plainly: In vivo inhibition of HDAC6 in hMFN2-induced CMT2A transgenic mouse model assessed as increase in acetylated tubulin in distal sciatic nerve tissue at 20 mg/kg, ip qd administered for 12 weeks followed by treatment with compound dissolved in PBS/PEG400/Tween80/EtOH (50/35/10/5) wt% as vehicle by Western blot analysis. It counts as functional, organism-based. In general terms: A western blot detects proteins with antibodies after separation by electrophoresis.

Series [7] in a line: Genotoxicity in Salmonella typhimurium TA1535 at 5 to 100 uM in presence of liver S9 fraction by Ames test. The series is classed as toxicity. The settings on record: salmonella enterica subsp. enterica serovar typhimurium, s9, 100 µM; dose 5-100 µM.
Series [8] in a line: Protein binding in human plasma. It counts as ADME, cell-free. Particulars: read-out: PPB (converted).
Series [9] can be described thus: Total AUC (0 to infinity) in C57BL/6J mouse brain at 15 mg/kg, ip. The series is classed as ADME, organism-based. The arrangement: time AUCmax, route intraperitoneal, dose 15 mg/kg.
A short description of series [10]: Genotoxicity in Salmonella typhimurium TA100 at 5 to 100 uM in absence of liver S9 fraction by Ames test. The series is classed as toxicity. Particulars: salmonella enterica subsp. enterica serovar typhimurium, s9, 100 µM; dose 5-100 µM.
Series [11] can be described thus: Genotoxicity in Salmonella typhimurium TA98 at 5 to 100 uM in presence of liver S9 fraction by Ames test. The series is classed as toxicity. The settings on record: salmonella enterica subsp. enterica serovar typhimurium, s9, 100 µM; dose 5-100 µM. In general terms: In the Ames test, an excess of revertant colonies over the control signals mutagenicity.

Activity calls are given as the source filed them. No cut-off for these calls is given here.

Sequence of Histone deacetylase 3 (O15379 whole entry): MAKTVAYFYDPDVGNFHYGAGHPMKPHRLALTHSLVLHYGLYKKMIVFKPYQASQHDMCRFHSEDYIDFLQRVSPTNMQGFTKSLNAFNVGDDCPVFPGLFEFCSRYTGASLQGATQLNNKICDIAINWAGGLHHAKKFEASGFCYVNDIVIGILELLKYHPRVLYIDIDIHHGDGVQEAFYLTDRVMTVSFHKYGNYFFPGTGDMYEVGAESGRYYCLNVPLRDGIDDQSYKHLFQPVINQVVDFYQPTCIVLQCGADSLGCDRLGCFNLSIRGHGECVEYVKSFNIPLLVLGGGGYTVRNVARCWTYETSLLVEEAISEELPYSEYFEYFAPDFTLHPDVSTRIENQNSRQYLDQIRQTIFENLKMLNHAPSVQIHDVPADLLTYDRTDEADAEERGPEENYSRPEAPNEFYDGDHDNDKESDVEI

As for `NC(=O)c1ccc2c(c1)CCCN2Cc1ccc(C(=O)NO)cc1`, in [1], the Cmax – broadly, the highest concentration seen after dosing – came to 223 ng/mL. Further, the 50% inhibitory concentration (IC50) (as a rule, the concentration at which inhibition is half-maximal) in [2] was determined as 235 nM; in [4], 0.7 nM. For the same compound, the Tmax – broadly, the time at which the peak concentration occurs – in series [3] was 15 min. In addition, the result in series [5] was Active. Further, in series [6], the inhibition result was “Active”. Also, the Activity result in [7], in [10] and in series [11] was “Non-Toxic” throughout. Further, the fraction unbound in series [8] is 0.142. For the same compound, the area under the curve AUC(0-inf) (as a rule, the area under the concentration-time curve extrapolated to infinity) in series [9] worked out at 280 ng·h/mL.
